Test results from publication PMC6272497, “Biological Activities and Cytotoxicity of Diterpenes from Copaifera spp. Oleoresins” (Molecules, 2015).
Values joined by “and” are separate entries in the source; they are usually repeats but may differ in a detail not shown here. Equal entries are not always repeated. “Also recorded” adds a separate entry of the source.

Experiments:
[1] = system: LOX; set-up: method as in doi:10.1007/s00044-013-0559-7; conditions: read-out: LOX inhibition IC50; cited from earlier work
[2] = system: IL-6 production; experiment: IL-6 production in LPS-stimulated J774 cells (CBA); assay type: cell-based, murine; conditions: for inhibition of IL-6 production (words): LPS-stimulated J774; for inhibition at 25 µM: Mus musculus, J774, 25 µM (abstract)
Experimental: Figure 2 Effect of the isolated diterpenic acids on nitric oxide (NO^•) and cytokine production in lipopolysaccharide-stimulated J774 cells. (A) TNF-α, (B) IL-6 and (C) IL-10 and (D) NO^•. […] The nitrite and cytokines values are the mean ± S.D. from three independent experiments. Indomethacin was used as a standard. Statistical analysis was performed using the Holm-Sidak multiple comparison. * p < 0.05 when compared to control stimulated with LPS. (1) 3-hydroxy-copalic acid, (2) kaurenoic acid, (3) 3-acetoxy-copalic acid, (4) kolavic acid 15-methyl ester, (5) copalic acid and (6) hardwickiic acid.
[…] The culture supernatants were collected after 24 h of LPS stimulation. The levels of cytokines in the culture media were measured by flow cytometry (BD Cytometric Bead Array—CBA—Mouse Inflammation kit) according to the manufacturer’s instructions.

[3] = system: AGP01 (gastric); experiment: Alamar Blue assay, tumoral cells AGP01; assay type: cell-based; conditions: 72 h, 20 µmol/L
Experimental: (§1) We also investigated possible cytotoxic effects on tumor cell lines (Table 1). To characterize this activity, the compounds were tested in different tumor cell lines, among which were AGP-01 (gastric), HCT116 (colorectal), MCF07 (breast cancer), NIHOVCAR (ovary), SKAMELL-4 (melanoma), and SF-295 (human glioblastoma), each at a concentration of 20 µM.
(§2) Cytotoxicity assay. The cytotoxicity of diterpene compounds to the murine macrophage cell line J774 was determined by the Alamar Blue method as described by Nakayama et al.. Briefly, adherent cells (5 × 10^3 cells/well) were grown in 96-well tissue culture plates and exposed to substances (2.5 to 10 µg/mL) for 24, 48 and 72 h. After incubation, the Alamar Blue solution (10 μL of 0.4% Alamar Blue (resazurin) in PBS) was added and the cells were incubated for 3 h at 37 °C. Fluorescence was measured (excitation at 545 nm and emission at 595 nm) and expressed as a percentage of the cells in the control after background fluorescence was subtracted. As a positive control of cell death, doxorubicin (5 µg/mL) was used. The assays were performed in triplicate. For the assays with tumoral cells, an Alamar Blue assay was performed using the following cell lines: AGP01—gastric; HCT116—colorectal; MCF07—breast cancer; NIHOVCAR—ovary; SKAMELL4—melanoma; SF295—human glioblastoma, which were seeded in 96-well plates (0.5 × 10^4 cells per well) and incubated in a CO2 atmosphere at 5% and 37 °C. After 24 h, diterpenes at 20 µM were added to each well and incubated for 72 h. Doxorubicin (10 μM) was used as a positive control and DMSO (0.1%) as a negative control. Before the end of the incubation, 10 µL of Alamar Blue (0.02%) was added to each well. The fluorescent signal was monitored using a multiplate reader using a 530–560 nm excitation wavelength and 590 nm emission wavelength. The fluorescent signal generated from the assay was proportional to the number of live cells in the sample, according to the manufacturer.

[4] = system: MCF7 (breast cancer); experiment: Alamar Blue assay, tumoral cells MCF7; assay type: cell-based; conditions: 72 h, 20 µmol/L
Experimental: as §1, §2

[5] = system: IL-10 production; experiment: IL-10 production in LPS-stimulated J774 cells (CBA); assay type: cell-based, murine
Experimental: Figure 2 Effect of the isolated diterpenic acids on nitric oxide (NO^•) and cytokine production in lipopolysaccharide-stimulated J774 cells. (A) TNF-α, (B) IL-6 and (C) IL-10 and (D) NO^•. Production of NO^• was assayed in culture supernatants of macrophages stimulated with LPS (1 µg/mL) for 24 h in the presence of the four compounds (25 µg/mL to cytokines and 50 µg/mL to NO^•). The nitrite and cytokines values are the mean ± S.D. from three independent experiments. Indomethacin was used as a standard. Statistical analysis was performed using the Holm-Sidak multiple comparison. * p < 0.05 when compared to control stimulated with LPS. (1) 3-hydroxy-copalic acid, (2) kaurenoic acid, (3) 3-acetoxy-copalic acid, (4) kolavic acid 15-methyl ester, (5) copalic acid and (6) hardwickiic acid.
Macrophage cells (1 × 10^6 cells/mL) were incubated with different concentrations of diterpene compounds (12.5 to 50 μM), and then stimulated with 1 μg/mL of LPS. The culture supernatants were collected after 24 h of LPS stimulation. The levels of cytokines in the culture media were measured by flow cytometry (BD Cytometric Bead Array—CBA—Mouse Inflammation kit) according to the manufacturer’s instructions.

[6] = system: NIHOVCAR (ovary); experiment: Alamar Blue assay, tumoral cells NIHOVCAR; assay type: cell-based; conditions: 72 h, 20 µmol/L
Experimental: as §1, §2

[7] = system: HCT-116 (colorectal); experiment: Alamar Blue assay, tumoral cells HCT-116; assay type: cell-based; conditions: 72 h, 20 µmol/L
Experimental: as §1, §2

[8] = system: SF295 (human glioblastoma); experiment: Alamar Blue assay, tumoral cells SF295; assay type: cell-based; conditions: 72 h, 20 µmol/L
Experimental: as §1, §2

[9] = system: SKMELL28 (melanoma); experiment: Alamar Blue assay, tumoral cells SKMELL28; assay type: cell-based; conditions: 72 h, 20 µmol/L
Experimental: as §1, §2

[10] = system: nitric oxide production in J774 macrophages stimulated with LPS; experiment: NO production assay (Griess) in LPS-stimulated J774 cells; assay type: cell-based, murine; conditions: Mus musculus; for IC50: J774, LPS 1 µg/mL, 24 h, read-out: inhibition of NO production IC50
Experimental: Our study evaluated the effects of diterpene compounds on the production of nitric oxide in the murine macrophage cell line J774 stimulated with LPS (Figure 2D). NO^• levels were measured by the Greiss method. […] Similar results for kaurenoic acid were observed by Choi et al. […] Figure 2 Effect of the isolated diterpenic acids on nitric oxide (NO^•) and cytokine production in lipopolysaccharide-stimulated J774 cells. (A) TNF-α, (B) IL-6 and (C) IL-10 and (D) NO^•. […] The nitrite and cytokines values are the mean ± S.D. from three independent experiments. Indomethacin was used as a standard. Statistical analysis was performed using the Holm-Sidak multiple comparison. * p < 0.05 when compared to control stimulated with LPS. (1) 3-hydroxy-copalic acid, (2) kaurenoic acid, (3) 3-acetoxy-copalic acid, (4) kolavic acid 15-methyl ester, (5) copalic acid and (6) […]. NO^• production by J774 cells was assayed by measuring the accumulation of nitrite in the culture medium using a Griess reaction. Briefly, after incubation of the cells (1 × 10^6 cells/mL) with diterpene compounds in different concentrations from 6.25 to 100 μM, cells were incubated for 24 h with LPS (1 μg/mL), at 37 °C in a 5% CO2 incubator. Nitric oxide was measured as NO2 in culture supernatant by reaction with Griess reagent. Absorbance of the reaction product was determined at 560 nm using a microplate reader (DTX 800, Beckman). Sodium nitrite was used as a standard to calculate nitrite concentrations.

[11] = system: tyrosinase; experiment: Tyrosinase inhibition test; assay type: biochemical
Experimental: The tyrosinase inhibition test was performed at concentrations of 31.25 to 500 µM.
Figure 1 Tyrosinase and lipoxygenase activities of the isolated diterpenes from Copaifera sp. […] 1. 3-hydroxy-copalic acid, 2. kaurenoic acid, 3. 3-acetoxy-copalic acid, 4. kolavic acid15-methyl ester, 5. copalic acid, and 6. hardwickiic acid. Each value is the mean ± S.E. of three independent experiments. Statistical analysis was performed using Holm-Sidak multiple comparisons. * p < 0.05 compared with the negative control.

[12] = system: erythrocyte; experiment: Hemolysis test
Experimental: The assay for the characterization of hemolytic activity aimed to evaluate the potential of diterpenes on lysis of the cell membrane.
Blood was collected in heparinized-tubes from Wistar rats, and washed three times with saline solution (NaCl 0.85% + CaCl2 10 mM) by centrifugation at 700 g for 10 min. The pellet of erythrocyte was re-suspended in saline solution for preparation of erythrocyte suspension −2% (SE). A total of 100 µL of the samples of diluted diterpenes was added to 96-well microplates in different concentrations (6.25 to 800 µM); 100 µL of SE was then added; and the samples were incubated for 60 min at 37 °C under constant agitation. The release of hemoglobin was determined after centrifugation (700 g for 10 min) by photometric analysis of the supernatant at 540 nm. Complete hemolysis was achieved using 0.2% Triton X-100 yielding the 100% control value.

[13] = LPS-stimulated J774, 12.5 to 50 µM

SMILES | Viability inhibition (%) MCF7 [4] | IL-10 production (words) [5, 13] | Viability inhibition (%) NIHOVCAR [6] | Viability inhibition (%) HCT-116 [7] | Viability inhibition (%) SF295 [8] | Viability inhibition (%) SKMELL28 [9] | IC50 [10] | other results
COc1c(C(C)C)cc2c(c1OC)[C@@]13CCC(=O)C(C)(C)[C@@H]1[C@H](OC3=O)C2=O [taxusabietane C] | – | – | – | – | – | – | – | IC50 [1]: 69 ± 0.31 µM
C=C1CCC2C(C)(C)[C@H](OC(C)=O)CC[C@@]2(C)[C@@H]1CCC(C)=CC(=O)O (stereo in doubt) [3-acetoxy-copalic acid, 3-Acetoxy-copalic acid] | ≤0.01% | increased IL-10 production; also recorded: induced IL-10 production | 2.0 ± 3.5% | ≤0.01% | 17.7 ± 0.9% | ≤0.01% | – | inhibition of IL-6 production (words) [2]: inhibited the production of IL-6; inhibition at 25 µM [2]: 23.8%; Viability inhibition (%) AGP01 [3]: 13.1 ± 5.3%; IL-10 production (words) ([5]; 12.5 µM and 25 µM): induced the production of IL-10; IL-10 production (words) ([5]; 50 µM): this induction decreased; Viability inhibition (%) SF295 ([8]; listed as 3-AcO-copalic): around 20%
COc1ccc2c(c1)c(CC(=O)O)c(C)n2C(=O)c1ccc(Cl)cc1 [indomethacin, reference compound] | – | – | – | – | – | – | 32 ± 3.5 µM | –
C[C@@H]1CC[C@@]2(C)C(C(=O)O)=CCC[C@@H]2[C@@]1(C)CCc1ccoc1 [hardwickiic acid, Hardwickiic acid] | ≤0.01% | did not induce the production of IL-10 | ≤0.01% | ≤0.01% | ≤0.01% | ≤0.01% | 67.4 ± 1.3 µM | –
C=C1CCC2C(C)(C)[C@H](O)CC[C@@]2(C)[C@@H]1CC/C(C)=C\C(=O)O (stereo partly drawn) [3-hydroxy-copalic acid, 3-Hydroxy-copalic acid] | ≤0.01% | promoted the induction of IL-10 independent of the dose tested | ≤0.01% | 4.7 ± 5.6% | 20.5 ± 5.0% | ≤0.01% | – | Viability inhibition (%) AGP01 [3]: 8.5 ± 13.1%; IL-10 production (words) ([5]; LPS-stimulated J774, 12.5 to 50 µM, listed as 3-hydroxy-copalic): induced IL-10 production; also recorded: induced production of interleukin-10; tyrosinase inhibition ([11]; 250 µM): 63.9% and 64% ± 1.5%; tyrosinase activity relative to standard kojic acid ([11]; 63.9% at 250 µM vs 73.5% at 700 µM): three times more active than the standard; tyrosinase inhibitory activity ([11]; conclusions): higher inhibitory activity; IC50 ([11]; tested at 31.25 to 500 µM): 256 µM; Viability inhibition (%) SF295 ([8]; listed as 3-HO-copalic): around 20%
COc1c(C(C)C)cc2c(c1O)C=C1C=CC(=O)C(C)(C)C1CC2=O (stereo not drawn) [taxamairin F] | – | – | – | – | – | – | – | IC50 [1]: 73 ± 0.14 µM
O=c1cc(CO)occ1O [Kojic acid, reference compound] | – | – | – | – | – | – | – | tyrosinase inhibition (activity of standard) ([11]; 700 µM): 73.5%
C=C1CC[C@@H]2C(C)(C)CCC[C@@]2(C)[C@@H]1CC/C(C)=C/C(=O)O [copalic acid, Copalic acid] | ≤0.01% | increased IL-10 production; also recorded: induced IL-10 production; also recorded: induced production of interleukin-10 | ≤0.01% | ≤0.01% | ≤0.01% | ≤0.01% | 57.4 ± 0.2 µM | inhibition of IL-6 production (words) [2]: inhibited the production of IL-6; inhibition at 25 µM [2]: 4.2%; hemolytic activity ([12]; 100 µM (abstract)): 38.4%; hemolytic activity ([12]; 100 mM (so in the source)): 38.4%; inhibition at 100 µM ([10]; J774, 100 µM, LPS-activated macrophages): 98.5%
